Laboratory results reported in US9686971B2, “Methods for testing anti-thrombotic agents” (The Trustees of Columbia University in the City of New York, priority 2006, dated 2017).

Experiments:
murine αIIbβ3 = target: T1, murine αIIbβ3 (Mus musculus, UniProt O54890+Q9QUM0); conditions: cited from earlier work
T1 sequence (Q9QUM0 32-1033): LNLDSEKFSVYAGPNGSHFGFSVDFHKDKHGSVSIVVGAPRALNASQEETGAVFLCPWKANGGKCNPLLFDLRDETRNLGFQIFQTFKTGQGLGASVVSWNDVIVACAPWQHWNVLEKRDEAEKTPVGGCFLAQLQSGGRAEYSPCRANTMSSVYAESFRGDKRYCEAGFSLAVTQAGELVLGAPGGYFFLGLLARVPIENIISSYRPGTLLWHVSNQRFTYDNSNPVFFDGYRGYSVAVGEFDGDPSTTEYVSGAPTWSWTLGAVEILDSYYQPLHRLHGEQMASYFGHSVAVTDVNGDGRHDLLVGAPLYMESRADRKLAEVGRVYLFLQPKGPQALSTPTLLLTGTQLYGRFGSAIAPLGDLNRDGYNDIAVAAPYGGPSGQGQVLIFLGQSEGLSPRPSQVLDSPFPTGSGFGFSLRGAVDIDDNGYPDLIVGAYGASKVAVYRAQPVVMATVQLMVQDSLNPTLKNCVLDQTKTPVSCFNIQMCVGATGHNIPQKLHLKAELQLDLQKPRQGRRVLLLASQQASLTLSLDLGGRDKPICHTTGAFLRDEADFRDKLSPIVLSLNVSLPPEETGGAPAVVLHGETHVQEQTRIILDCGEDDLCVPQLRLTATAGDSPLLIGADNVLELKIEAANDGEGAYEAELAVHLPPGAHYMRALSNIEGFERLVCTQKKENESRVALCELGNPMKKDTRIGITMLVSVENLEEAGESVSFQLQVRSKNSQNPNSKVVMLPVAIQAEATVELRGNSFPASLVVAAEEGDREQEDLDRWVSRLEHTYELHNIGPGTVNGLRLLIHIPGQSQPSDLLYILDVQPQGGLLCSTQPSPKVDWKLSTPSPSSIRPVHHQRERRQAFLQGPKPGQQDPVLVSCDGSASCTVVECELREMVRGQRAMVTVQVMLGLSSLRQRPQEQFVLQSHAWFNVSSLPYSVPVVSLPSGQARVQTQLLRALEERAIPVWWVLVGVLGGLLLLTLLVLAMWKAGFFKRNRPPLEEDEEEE
T1 sequence (O54890 26-787): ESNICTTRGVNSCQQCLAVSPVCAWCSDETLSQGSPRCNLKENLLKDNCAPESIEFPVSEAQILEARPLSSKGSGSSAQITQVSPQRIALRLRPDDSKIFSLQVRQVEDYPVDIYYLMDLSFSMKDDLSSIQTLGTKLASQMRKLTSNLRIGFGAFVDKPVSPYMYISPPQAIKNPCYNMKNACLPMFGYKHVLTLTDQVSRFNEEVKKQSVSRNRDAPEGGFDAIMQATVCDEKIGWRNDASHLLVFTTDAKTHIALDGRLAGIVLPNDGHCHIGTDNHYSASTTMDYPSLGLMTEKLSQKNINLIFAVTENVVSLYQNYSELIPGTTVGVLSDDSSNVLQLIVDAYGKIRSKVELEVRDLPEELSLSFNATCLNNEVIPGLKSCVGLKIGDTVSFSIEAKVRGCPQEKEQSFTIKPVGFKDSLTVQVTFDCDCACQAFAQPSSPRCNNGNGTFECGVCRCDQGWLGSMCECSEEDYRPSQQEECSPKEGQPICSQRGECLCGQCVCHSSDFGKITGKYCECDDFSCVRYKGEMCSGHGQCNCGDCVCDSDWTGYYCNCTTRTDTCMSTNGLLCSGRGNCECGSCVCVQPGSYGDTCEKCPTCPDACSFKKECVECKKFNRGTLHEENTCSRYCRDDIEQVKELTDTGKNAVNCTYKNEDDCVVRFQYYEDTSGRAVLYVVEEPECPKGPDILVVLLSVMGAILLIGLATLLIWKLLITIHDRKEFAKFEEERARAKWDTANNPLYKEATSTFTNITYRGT

human platelets = assay: Tail bleeding assay, human platelet-induced hemostasis in homozygous VWF^1326R>H mice; type: in vivo, mouse; conditions: for human platelet-induced hemostatic clot / plug formation (words): PLAVIX 50 mg/kg oral day before and 2 h prior, ReoPro 0.25 mg/kg iv bolus then 0.125 μg/kg/min, 5 min after human platelets
Procedure: This assay provides an indirect measure of the ability of platelets and VWF to support hemostasis by interacting with the injured vessel wall. It also indirectly determines the function of multiple receptors and ligands on platelets that are required to form a hemostatic plug. […] It is performed by immersing the severed tip (10 mm) of the animal's tail in isotonic saline at 37° C. and monitoring the length of time required for bleeding to cease. Homozygous mutant mice will be infused with an equal volume of either saline or purified human platelets. Platelet specific antibodies or drugs will be administered as described above and their ability to prolong bleeding time evaluated. All experiments will be stopped at 10 min by cauterizing the tail (51).
Tail cuts were performed 5 min after completion of the infusion of platelets. PLAVIX and ReoPro® were obtained from the research pharmacy at CUMC. For studies involving PLAVIX, animals received a 50 mg/kg oral dose of the drug the day before and 2 h prior to the administration of human platelets.

**Q.** For “abciximab: Fab fragment of the chimeric human-mouse monoclonal antibody 7E3, which blocks the function of αIIbβ3 on human platelets”, which “binding / function of murine αIIbβ3” value (murine αIIbβ3) is on record?
**A.** does not bind or disrupt the function of murine αIIbβ3

**Q.** What about the “human platelet-induced hemostatic clot / plug formation (words)” value (human platelets) of the same substance?
**A.** completely disrupted

**Q.** And the “human platelet-induced hemostatic clot / plug formation (words)” value (human platelets; listed as ReoPro)?
**A.** prevented the formation of a hemostatic plug

**Q.** And the mean bleeding time (human platelets; homozygous VWF^1326R>H mice, given after infusion of human platelets)?
**A.** 579 s
